How the values were obtained:
[1] = molecular target: T1, SMARCA4-HiBiT HeLa cells (protein which is expressed from the SMARCA4 gene) (Homo sapiens, UniProt P51532); assay: SMARCA4 degradation assay (HiBiT-fusion HeLa cell line, 24 h, luminescence); type: cell-based
T1 construct: protein which is expressed from the SMARCA2 and SMARCA4 genes; host or cells: HeLa (SMARCA4-HiBiT engineered line)
Method in brief: (§1)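 SMARCA2- or SMARCA4-HiBiT HeLa cells seeded overnight at 37° C, then given compound as a 10-point dilution (typically 10 μM to 300 pM) for 24 h at 37° C. Protein level read by HiBiT lytic detection luminescence; DC50 from dose-response curves; degradation also scored at 1 μM.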

[2] = molecular target: T2, SMARCA2-HiBiT HeLa cells (protein which is expressed from the SMARCA2 gene) (Homo sapiens, UniProt P51531); assay: SMARCA2 degradation assay (HiBiT-fusion HeLa cell line, 24 h, luminescence); type: cell-based
T2 construct: protein which is expressed from the SMARCA2 and SMARCA4 genes; host or cells: HeLa (SMARCA2-HiBiT engineered line)
Method in brief: as §1

T2 sequence (P51531 whole entry, the tested form may be a part): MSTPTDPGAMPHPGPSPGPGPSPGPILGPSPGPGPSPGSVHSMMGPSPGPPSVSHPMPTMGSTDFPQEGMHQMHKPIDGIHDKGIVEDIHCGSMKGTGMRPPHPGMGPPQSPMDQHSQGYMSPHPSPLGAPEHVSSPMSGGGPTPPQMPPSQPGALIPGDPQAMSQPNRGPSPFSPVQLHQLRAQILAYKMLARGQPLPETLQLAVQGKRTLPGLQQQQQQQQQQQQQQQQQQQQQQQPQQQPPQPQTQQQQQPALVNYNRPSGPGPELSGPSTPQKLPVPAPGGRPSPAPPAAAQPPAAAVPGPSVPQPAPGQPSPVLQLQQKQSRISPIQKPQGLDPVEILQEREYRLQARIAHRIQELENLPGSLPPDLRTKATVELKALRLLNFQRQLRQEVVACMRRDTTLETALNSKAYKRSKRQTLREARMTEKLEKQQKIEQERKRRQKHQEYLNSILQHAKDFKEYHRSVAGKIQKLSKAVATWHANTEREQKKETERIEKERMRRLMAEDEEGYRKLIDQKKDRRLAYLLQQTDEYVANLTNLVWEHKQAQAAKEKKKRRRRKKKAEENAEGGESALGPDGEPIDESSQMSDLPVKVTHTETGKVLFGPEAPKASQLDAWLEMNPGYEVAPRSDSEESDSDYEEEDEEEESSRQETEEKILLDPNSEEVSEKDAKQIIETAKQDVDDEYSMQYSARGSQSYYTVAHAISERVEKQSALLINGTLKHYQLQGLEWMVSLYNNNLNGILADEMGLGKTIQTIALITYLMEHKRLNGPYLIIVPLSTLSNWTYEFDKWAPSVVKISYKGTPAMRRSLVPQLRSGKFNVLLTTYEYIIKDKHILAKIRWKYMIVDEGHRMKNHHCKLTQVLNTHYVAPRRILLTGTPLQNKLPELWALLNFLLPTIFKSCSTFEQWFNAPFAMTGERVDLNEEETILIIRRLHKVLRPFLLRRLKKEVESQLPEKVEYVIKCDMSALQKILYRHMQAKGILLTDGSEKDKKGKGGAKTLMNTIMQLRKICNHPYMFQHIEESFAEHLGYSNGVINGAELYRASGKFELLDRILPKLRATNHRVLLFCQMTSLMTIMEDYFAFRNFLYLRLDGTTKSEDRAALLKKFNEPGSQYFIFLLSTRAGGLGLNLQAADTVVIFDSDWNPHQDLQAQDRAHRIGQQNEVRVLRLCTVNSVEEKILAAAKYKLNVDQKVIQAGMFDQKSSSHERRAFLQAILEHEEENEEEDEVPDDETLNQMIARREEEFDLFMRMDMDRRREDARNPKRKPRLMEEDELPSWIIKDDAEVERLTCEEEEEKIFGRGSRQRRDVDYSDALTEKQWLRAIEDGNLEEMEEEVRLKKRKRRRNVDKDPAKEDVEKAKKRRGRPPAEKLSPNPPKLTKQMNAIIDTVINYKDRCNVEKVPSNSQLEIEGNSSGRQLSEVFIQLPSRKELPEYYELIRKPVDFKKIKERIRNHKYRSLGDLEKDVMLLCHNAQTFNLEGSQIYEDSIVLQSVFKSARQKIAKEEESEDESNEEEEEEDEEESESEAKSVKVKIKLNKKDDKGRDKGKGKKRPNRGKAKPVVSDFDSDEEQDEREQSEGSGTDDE
T1 sequence (P51532 whole entry, the tested form may be a part): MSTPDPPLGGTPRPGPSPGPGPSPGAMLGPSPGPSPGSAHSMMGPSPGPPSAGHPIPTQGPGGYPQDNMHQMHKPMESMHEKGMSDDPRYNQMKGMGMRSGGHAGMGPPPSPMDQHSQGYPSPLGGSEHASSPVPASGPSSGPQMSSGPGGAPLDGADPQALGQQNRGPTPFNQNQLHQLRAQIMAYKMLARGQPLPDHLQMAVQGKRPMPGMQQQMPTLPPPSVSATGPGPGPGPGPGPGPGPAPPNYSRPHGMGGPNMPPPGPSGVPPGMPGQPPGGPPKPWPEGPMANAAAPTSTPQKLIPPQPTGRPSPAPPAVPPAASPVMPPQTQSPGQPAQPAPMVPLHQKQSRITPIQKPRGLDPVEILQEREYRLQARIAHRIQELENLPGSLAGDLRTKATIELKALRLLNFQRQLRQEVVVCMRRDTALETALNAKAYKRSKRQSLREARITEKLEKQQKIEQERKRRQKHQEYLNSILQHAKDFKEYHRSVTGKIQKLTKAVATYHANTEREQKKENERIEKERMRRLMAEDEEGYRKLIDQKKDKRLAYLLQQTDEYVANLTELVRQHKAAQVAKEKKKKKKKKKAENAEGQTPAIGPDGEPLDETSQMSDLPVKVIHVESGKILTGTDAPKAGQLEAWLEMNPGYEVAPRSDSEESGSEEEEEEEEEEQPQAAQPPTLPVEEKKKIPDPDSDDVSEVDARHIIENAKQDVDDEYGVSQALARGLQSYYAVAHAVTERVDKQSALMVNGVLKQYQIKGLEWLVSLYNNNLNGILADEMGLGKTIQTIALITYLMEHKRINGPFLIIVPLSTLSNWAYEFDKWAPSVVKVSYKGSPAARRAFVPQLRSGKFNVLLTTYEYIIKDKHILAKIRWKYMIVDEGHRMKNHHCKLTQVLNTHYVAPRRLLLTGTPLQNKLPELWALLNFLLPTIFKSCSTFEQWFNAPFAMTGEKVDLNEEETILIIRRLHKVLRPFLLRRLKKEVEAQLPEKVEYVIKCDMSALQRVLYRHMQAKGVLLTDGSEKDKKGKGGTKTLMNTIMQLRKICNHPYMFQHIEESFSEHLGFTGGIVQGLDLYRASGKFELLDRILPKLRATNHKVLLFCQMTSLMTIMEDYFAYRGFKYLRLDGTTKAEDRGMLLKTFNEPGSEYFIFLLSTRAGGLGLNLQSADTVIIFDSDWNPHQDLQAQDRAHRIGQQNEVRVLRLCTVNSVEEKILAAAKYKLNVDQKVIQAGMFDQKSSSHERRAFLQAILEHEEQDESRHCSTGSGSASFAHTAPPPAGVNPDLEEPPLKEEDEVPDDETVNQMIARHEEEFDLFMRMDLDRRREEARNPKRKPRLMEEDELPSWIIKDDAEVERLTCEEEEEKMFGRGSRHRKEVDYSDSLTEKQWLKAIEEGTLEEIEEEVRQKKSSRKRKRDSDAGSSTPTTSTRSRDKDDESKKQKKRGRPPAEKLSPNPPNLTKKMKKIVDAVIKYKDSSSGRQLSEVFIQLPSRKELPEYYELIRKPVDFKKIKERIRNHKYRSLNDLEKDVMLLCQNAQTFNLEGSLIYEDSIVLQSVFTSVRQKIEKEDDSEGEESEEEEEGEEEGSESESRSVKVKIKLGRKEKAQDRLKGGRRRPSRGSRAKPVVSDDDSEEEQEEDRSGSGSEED

| SMILES | DC50 [1] [µM] | inhibition at 1 µM [1] [%] | DC50 [2] [µM] | SMARCA2 % Degradation @ 1 μM [2] |
| --- | --- | --- | --- | --- |
| Nc1nnc(-c2ccccc2O)cc1N1CCCN(c2ccnc(C#CCN3CCCOCC3)n2)CC1 [Compound P-379, 0-[6-amino-5-(4-{2-[3-(1,4-oxazepan-4-yl)-1-propynyl]-4-pyrimidinyl}-1,4-diazepan-1-yl)-3-pyridazinyl]phenol] | 0.05 to 0.5 | 30 to 70 | 0.05 to 0.5 | +++ (+++=>70%) |
| CC1(C)CN(CC#Cc2nccc(N3CCCN(c4cc(-c5ccccc5O)nnc4N)CC3)n2)CCO1 [Compound P-311, 0-[6-amino-5-(4-{2-[3-(2,2-dimethyl-4-morpholinyl)-1-propynyl]-4-pyrimidinyl}-1,4-diazepan-1-yl)-3-pyridazinyl]phenol] | 0.5 to 5 | 30 to 70 | 0.05 to 0.5 | ++ (++=30-70%) |
| COC[C@@H](C)NCC#Cc1nccc(N2CCCN(c3cc(-c4ccccc4O)nnc3N)CC2)n1 [Compound P-277, 0-{5-[4-(2-{3-[(R)-2-methoxy-1-methylethylamino]-1-propynyl}-4-pyrimidinyl)-1,4-diazepan-1-yl]-6-amino-3-pyridazinyl}phenol] | 0.05 to 0.5 | 30 to 70 | 0.05 to 0.5 | ++ (++=30-70%) |
| CNC/C=C/c1nccc(N2CCN(c3cc(-c4ccccc4O)nnc3N)CC[C@H]2C)n1 [Compound P-165, o-{5-[(R)-5-methyl-4-{2-[3-(methylamino)-1-propenyl]-4-pyrimidinyl}-1,4-diazepan-1-y1]-6-amino-3-pyridaziny1}phenol] | 0.05 to 0.5 | 30 to 70 | 0.05 to 0.5 | +++ (+++=>70%) |
| CC(C)(C)OC(=O)N1CCCC1C#Cc1nccc(N2CCCN(c3cc(-c4ccccc4O)nnc3N)CC2)n1 (stereo not drawn) [Compound P-348, tert-butyl 2-[2-(4-{4-[3-amino-6-(o-hydroxyphenyl)-4-pyridazinyl]-1,4-diazepan-1-y1}-2-pyrimidinyl)ethynyl]-1-pyrrolidinecarboxylate] | 0.05 to 0.5 | > 70 | 0.05 to 0.5 | +++ (+++=>70%) |
| C[C@@H]1CCN(c2cc(-c3ccccc3O)nnc2N)CCN1c1ccnc(C=CCN(C)CC(F)F)n1 [Compound P-163, o-{5-[(R)-4-(2-{3-[(2,2-difluoroethyl)-N-methylamino]-1-propenyl}-4-pyrimidinyl)-5-methyl-1,4-diazepan-1-yl]-6-amino-3-pyridazinyl}phenol] | 0.05 to 0.5 | < 30 | 0.05 to 0.5 | ++ (++=30-70%) |

The next lines start with the values.

| DC50 [1] [µM] | inhibition at 1 µM [1] [%] | DC50 [2] [µM] | SMARCA2 % Degradation @ 1 μM [2] | SMILES |
| --- | --- | --- | --- | --- |
| 0.05 to 0.5 | 30 to 70 | 0.05 to 0.5 | +++ (+++=>70%) | Cc1nccn1CC#Cc1nccc(N2CCN(c3cc(-c4ccccc4O)nnc3N)CC[C@H]2C)n1 [Compound P-186, o-{5-[(R)-5-methyl-4-{2-[3-(2-methyl-1-imidazolyl)-1-propynyl]-4-pyrimidinyl}-1,4-diazepan-1-yl]-6-amino-3-pyridazinyl}phenol] |
| 0.05 to 0.5 | 30 to 70 | 0.05 to 0.5 | ++ (++=30-70%) | N#CCNCC#Cc1nccc(N2CCCN(c3cc(-c4ccccc4O)nnc3N)CC2)n1 [Compound P-255, [3-(4-{4-[3-amino-6-(o-hydroxyphenyl)-4-pyridaziny1]-1,4-diazepan-1-yl}-2-pyrimidinyl)-2-propynylamino]acetonitrile] |
| 0.05 to 0.5 | 30 to 70 | 0.5 to 5 | ++ (++=30-70%) | Nc1nnc(-c2ccccc2O)cc1N1CC2CN(c3ccnc(C#CCNC(=O)c4cc5ncccn5n4)n3)C2C1 (stereo not drawn) [Compound P-43, N-(3-(4-(3-(3-amino-6-(2-hydroxyphenyl)pyridazin-4-yl)-3,6-diazabicyclo[3.2.0]heptan-6-yl)pyrimidin-2-yl)prop-2-yn-1-yl)pyrazolo[1,5-a]pyrimidine-2-carboxamide] |

— patent publication US20260265238A1, “COMPOUNDS AND PHARMACEUTICAL COMPOSITIONS THAT DEGRADE SWI/SNF-RELATED MATRIX-ASSOCIATED ACTIN-DEPENDENT REGULATOR OF CHROMATIN SUBFAMILY A” (Plexium, Inc., priority 2023, published 2026)
